According to patent US20070099822A1, “Regulation of tissue mineralization and phosphate metabolism by asarm peptides” (priority 2003, published 2007):
Like-named read-outs stand apart in the source and are kept apart here. Ends that are not written are not given here.

B1: non-biotinylated, non-phosphorylated synthetic ASARM-peptide (MEPE residues 507-525) used for ELISA standard curves (peptide)
peptide: RDDSSESSDSGSSSESDGD
modifications: not fully specified

Key:
[1] = tested on: Na+ dependent phosphate co-transport in primary human renal proximal tubule epithelial cells (RPTEC); experiment: 33PO4 uptake scintillation proximity assay (SPA) in RPTEC; assay type: cell-based
Experimental: (§1) Measurement of ^33PO4 uptake and ^14C-α-methyl D-glucose uptake. A novel technique, scintillation proximity assay (SPA), was used to measure ^33PO4 uptake in-vitro. Human renal proximal-tubule primary cells (RPTEC) were purchased from Clonetics-Biowhittaker (Walkersville, Md.) (cat. no. CC2553) and were cultured and subcultured using the manufacturers recommended protocols, methods, buffers and media (cat. nos. CC3190, CC5034). Also a human renal cell-line (Hu-CL8) was cultured as previously described (Rowe et al. Candidate 56 and 58 kDa protein(s) responsible for mediating the renal defects in oncogenic hypophosphatemic osteomalacia. Bone 18(2):159-169, 1996). For ^33PO4-uptake measurement cells were grown in REBM media supplemented with 5% fetal calf serum (REBM-FCS) to 80% confluence (Clonetics-Biowhitaker, Walkersville, Md.: cat. nos. CC2553, CC3190 and CC5034) and seeded into 96 well (3000 cells/well) cytostar-T scintillating-microplates (Amersham-Pharmacia Biotech, Piscataway, N.J.: cat. no. RPNQ 0162). Cells were then cultured in 200 μL of REBM-FCS media for 24 h. Media was then replaced with serum free media (REBM) and the cells incubated for a further 3-4 h with Hu-MEPE, PTH (1-34) or media control respectively in REBM media. The concentrations of PTH (1-34) and Hu-MEPE were […] and each experimental dose was repeated eight times for statistical analysis. Following incubation media was removed and replaced with either phosphate uptake buffer (PUB) consisting of 150 mM NaCl/1 mM Cacl2/1.8 mM MgSO4/10 mM HEPE pH 7.0/0.1 mM phosphate buffer pH 7.0 and 3 uCi mL^−1 33P as orthophosphoric acid (18 MBq/mL or 5775.7 Gbq/mg stock solution Perkin Elmer, Wellesley, Mass.: cat. no. NEZ080). In order to determine the Na-dependent phosphate co-transporter activity a separate set of control cells were incubated with the same buffer but with choline chloride (150 mM) substituted for NaCl (CHUB buffer). After 10 min at 37° C. the reaction was terminated by removing the PUB and CHUB buffers and replacing with STOP buffer (CHUB buffer without radioisotope). The cytostar scintillation plates were then directly assayed for counts (CPM) using a Hewlett-Packard (Palo Alto, Calif.) Multiplate Top-counter calibrated for ^33P SPA assay. Due to the unique design of the 96 well cytostar-plate radioactive decay in solution is not detected by the counter. In contrast, radioisotope attached to or taken into the cells initiates release of plastic-scintillant photons that are detected by the top-counter photo-multiplier tube. Thus, no washes are required and direct CPM can be counted in living cells. Following CPM determination the buffers were removed from the living cells and fresh media supplemented with cell-titre-96 (Promega-Biotech, Madison, Wis.: cat. no. G5421) cell-number detection media. Cells were then further incubated at 37° C. for 4 h. Conversion of a tetrazolium salt to a colored formazan product by living cells was then measured at 490 nm using a 96 well multi-well spectrophotometer with KC-4 software (absorbance at 490 nm is directly proportional to the number of living cells). Na-dependent ^33P uptake was then calculated by subtracting background counts and the choline chloride non Na-dependent ^33P uptake and results expressed as ^33PO4 femtomoles/10^4-cells/6 min. […]

[2] = tested on: Na+ dependent phosphate co-transport in human renal proximal tubule cell-line (Hu-CL8); experiment: 33PO4 uptake scintillation proximity assay (SPA) in Hu-CL8; assay type: cell-based; conditions: Hu-CL8
Experimental: as §1, with “After 10 min at 37° C. the reaction was terminated by removing the PUB and CHUB buffers and replacing with STOP buffer (CHUB buffer without radioisotope). The cytostar scintillation plates were then directly assayed for counts (CPM) using a Hewlett-Packard (Palo Alto, Calif.) Multiplate Top-counter calibrated for ^33P SPA assay.” left out, “Following CPM determination the buffers were removed from the living cells and fresh media supplemented with cell-titre-96 (Promega-Biotech, Madison, Wis.: cat. no. G5421) cell-number detection media. Cells were then further incubated at 37° C. for 4 h.” left out

Male ICR-Swiss mice = experiment: Intraperitoneal administration of Hu-MEPE and PTH (1-34) into mice, serum and urine assays; assay type: in vivo
Experimental: Intraperitoneal administration of Hu-MEPE and PTH (1-34) into mice. Male ICR-Swiss mice were used as recipients for intraperitoneal administration (100 μl) of 0.1% phosphate-buffered saline/0.1% bovine serum albumin (vehicle) and experimental conditions (Hu-MEPE and PTH 1-34) dissolved in 100 μL of vehicle. Two separate (repeat) experiments were conducted consisting of four groups with 6 and 7 animals per group. The control group was administered with 100 μL of vehicle (Group-1). Group-2 consisted of animals administered with 0.8 μg/injection of parathyroid hormone (PTH 1-34). Group 3 were injected with 0.4 μg/injection of Hu-MEPE and Group-4 with 4 μg/injection of Hu-MEPE. On day one, three bolus injections were given at 0, 3 h, and 6 h. Serum samples were then collected via retro-orbital bleed one hour after the 6 h bolus administration. The next day or 30 hours after the first bolus a fourth bolus (same amount) was given and after 1 h the animals were sacrificed and serum prepared after cardiac exsanguination. The total amounts of PTH and MEPE administered over the 30 h were 80 μg/kg/30 h PTH 1-34, 40 μg/kg/30 h Hu-MEPE (MEPE-40) and 400 μg/kg/30 h Hu-MEPE (MEPE-400). Each group was placed in a separate metabolic cage and urine was collected for the 6-hour period. After the first 6-hour urine collection mice were replaced in thoroughly cleaned metabolic cages for the remaining 24 hours. The second 24-hour urine was collected immediately after the animals were sacrificed. The urine volumes for the second and first collections were measured. Collecting urine samples from large numbers of small mice over the time frame of the experiment was not feasible. Therefore, urine samples from each group (n=7) were pooled and volumes measured via a specially designed collecting duct in the metabolic cage. To ensure reproducibility the experiment was repeated twice (the same changes occurred). To calculate the fractional excretion of phosphate (FEP) the following equation was used: 100−(100×(1−(A/B))) where A=(urine phosphorus in mg/dL)×(serum creatinine in mg/dL) and B=(urine creatinine in mg/dL)×(serum phosphorus in mg/dL). To calculate renal phosphorus clearance (RPC) in mL/minute following computation was used: (urine phosphorus in mg/dL)×(urinary volume in mL)/((serum phosphorus in mg/dL)×(time of collection in minutes)). The phosphate excretion index (PEI) was calculated using the same method described by Shimada et al. (Cloning and characterization of FGF23 as a causative factor of tumor-induced osteomalacia, Proc Natl Acad Sci USA 98:6500-6505, 2001) using the following formula: ((urinary concentration of phosphorus in mg/dL)/(serum concentration of phosphorus in mg/dL))/(total urinary creatinine in mg).
Serum and urine assays. Serum and urine assays for phosphate, calcium, chloride, potassium, creatinine, glucose and alkaline phosphatase were accomplished using 96 well format KC4-spectrophotometer multiplate kinetic/end-point analyses using routine methods and diagnostic-kits Sigma-Diagnostics). Serum 1,25-dihydroxy vitamin-D3 levels were estimated using the method of Reinhardt, et al. (A microassay for 1,25-dihydroxyvitamin D not requiring high performance liquid chromatography: application to clinical studies, J Clin Endocrinol Metab 58:91-98, 1984). Analysis of data for fractional excretion of phosphate (FEP) was carried out following the same method described previously by Shimada et al. (Mutant FGF-23 responsible for autosomal dominant hypophosphatemic rickets is resistant to proteolytic cleavage and causes hypophosphatemia in vivo, Endocrinology 143:3179-82, 2002) for FGF23 bolus administration studies and by Nesbitt et al. (Crosstransplantation of kidneys in normal and Hyp mice: Evidence that the Hyp mouse phenotype is unrelated to an intrinsic renal defect, J Clin Invest 89:1453-59, 1992) for renal cross-transplantation experiments in Hyp mice.
Statistical methods. […]

[3] = molecular target: rabbit polyclonal antibodies raised against ASARM-peptide (SEQ ID NO. 5); experiment: competitive chemiluminescent ELISA: anti-ASARM polyclonal on protein-G plates, 0.5 ng/mL biotinylated ASARM-peptide as competitor
[4] = molecular target: rabbit polyclonal antibodies raised against ASARM-peptide (SEQ ID NO. 5); experiment: competitive chemiluminescent ELISA: anti-ASARM polyclonal on protein-G plates, 0.5 ng/mL biotinylated ASARM-peptide as competitor, one site binding hyperbola of % quenching

Molecule	inhibition of Na+ dependent phosphate co-transport [1]	inhibition of Na+ dependent phosphate co-transport ([1]; listed as PTH)	inhibition of Na+ dependent phosphate co-transport [2]	fractional excretion of phosphate (FEP) (Male ICR-Swiss mice; 7 h, PTH 80 ug/kg/30 h, vehicle 7.8%)	urine phosphate (Male ICR-Swiss mice; 7 h, PTH 80 ug/kg/30 h i.p., vehicle 31.8)	fractional excretion of phosphate (FEP) (Male ICR-Swiss mice; 31 h, PTH 80 ug/kg/30 h, vehicle 28.7%)	serum alkaline phosphatase (Male ICR-Swiss mice; 31 h, PTH 80 ug/kg/30 h, vehicle 65.06)	serum 1,25-dihydroxy vitamin-D3 (Male ICR-Swiss mice; 31 h, PTH 1-34 80 ug/kg/30 h, pooled, vehicle 25.2)	serum phosphate (Male ICR-Swiss mice; 31 hours, PTH 80 ug/kg/30 h i.p., vehicle 11.94)	urine phosphate (Male ICR-Swiss mice; 31 h second urine, PTH 80 ug/kg/30 h, vehicle 175.9)	serum phosphate vs vehicle (Male ICR-Swiss mice; after 7 hours, i.p., PTH and MEPE animals)	serum calcium vs vehicle (Male ICR-Swiss mice; after 7 hours, PTH 80 ug/kg/30 h, low Hu-MEPE dose)	urine calcium vs Hu-MEPE and vehicle (Male ICR-Swiss mice; after 31 hours, PTH)	Qmax (quench maximum) [3]	Kd [4]
PTH (1-34): parathyroid hormone (PTH 1-34), used as a positive control (SVSEIQLMHNLGKHLNSMERVEWLRKKLQDVHNF; Parathyroid hormone; UniProt P01270 32-65, looked up, fragment) [reference compound]	Dose dependent inhibition	dose-dependent inhibition	Dose dependent inhibition	27.4%	61.6 mg/dL	53.3%	46.3 U/L	61.2 pg/mL	8.32 mg/dL	238.3 mg/dL	no significant differences	significantly elevated	significantly hypocalciuric		
B1														98.7%	7.5 ng/mL
